Molecules are shown by their SMILES. Converted amounts (≈) assume the structure as drawn. Like-named read-outs stand apart in the source and are kept apart here. Residues, ends and D or L forms follow the SMILES beside them. *: point of attachment. Pentanoyl = CCCCC(=O)* Some results are limits rather than exact numbers.

One data set has as its system human erythrocytes. Put plainly: Hemolytic activity. It is filed as cell-based. Conditions: 15% suspension in PBS, 1 h, 37 °C, absorbance 540 nm, highest tested concentration 100 µM.
Data set [1] is described as follows: Carboxyfluorescein release assay, bacterial liposome model. In kind it is biochemical. Conditions: 75:25 POPC:POPG liposomes, 25 µM lipid, 10 mM PBS pH 7.4, 10^–5–10^2 µM peptide, 60 min, fluorescence, Hill fit, n = 3; read-out: EC50 Bacterial (concentration that triggers 50% CF release). In a few lines:
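CF-loaded extruded 0.1 µm unilamellar liposomes: bacterial POPC:POPG 75:25, mammalian POPC:POPS:Chol 65:5:30. Liposomes at 25 µM lipid in PBS pH 7.4 incubated with peptide (10^–5–10^2 µM; n = 3), fluorescence read every 2.5 min for 1 h. Release normalized to 1% Triton X-100; EC50 from Hill-1 fit.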

Data set [2] can be described thus: Dynamic light scattering, critical aggregation concentration. It is filed as physicochemical. To be noted: DLS scattering intensity at 90°, 10 mM PBS pH 7.4, serial dilution 100 µM to 0.01 nM, 22 °C, average of 10 runs of 30 s; estimated. How it is done: Lipopeptide aggregation was evaluated on a ALV/CGS-8F Platform (ALV-GmbH, Langen, Germany) equipped with a […] He–Ne laser. Scattered light was collected at 90°. PBS (10 mM, pH 7.4) was chosen as buffer, and filtered with a 0.22 µm filter prior to use. The samples were prepared in a cylindrical glass cuvette immersed in refractive-index matching toluene. The peptides were serially diluted between 100 µM and 0.01 nM, sonicated for 1 min and incubated for 5 min at 22 °C and vortexed prior to measuring. The temperature was controlled throughout the experiment with the use of a circulating water bath. Data were analysed with ALV-Correlator (Version 3.0, ALV-GmbH, Langen, Germany) software, and the scattering intensity was obtained through an average of 10 consecutive 30 s runs.

The test system of another data set is E. coli (K-12 MG1655). It is filed as cell-based. Conditions: K-12, 20 h.
The subject of another data set is E. coli. How it is done: (§1) In order to evaluate the risk of the development of resistance towards the lipopeptide, a serial passage assay was conducted. […] MIC and MBC were determined for passages 0, 10, 20 and 30, using the broth microdilution method and compared with the unexposed bacteria (passage 0).
In the next data set the test system is S. aureus. Here is the method: as §1
Setting [3] is: E. coli p0 (unexposed bacteria, passage 0).
Where [4] appears, read: E. coli p10, cultured with 1 µM L-6-C5 in LB-broth.
[5] abbreviates: E. coli p20, cultured with 1 µM L-6-C5 in LB-broth.
[6] abbreviates: E. coli p30, cultured with 1 µM L-6-C5 in LB-broth.
Where [7] appears, read: S. aureus p0 (unexposed bacteria, passage 0).
Setting [8] is: S. aureus p10, cultured with 1 µM L-6-C5 in LB-broth.
Setting [9] is: S. aureus p20, cultured with 1 µM L-6-C5 in LB-broth.
Where [10] appears, read: S. aureus p30, cultured with 1 µM L-6-C5 in LB-broth.

Method for E. coli (K-12 MG1655): The broth microdilution method was used to determine minimal inhibitory concentration (MIC) and minimal bactericidal concentration (MBC), in accordance with the EUCAST standards for the broth microdilution method. Two-fold serial dilutions of the lipopeptides were used, and the final concentrations ranged from 0.19 to 100 µM. In brief, two-fold serial dilutions of the lipopeptides were performed in a 96-well plate in PBS, with a final volume of 100 µl per well, after which 100 µl of LB-broth media containing approximately 5 × 10^5 CFU/ml of bacteria was added to each well. The plate was then incubated for 20 h in 37 °C on a shaker (400 rpm). The effect of lipopeptide-antibiotic combinations was investigated by performing checkerboard assays. The assays were performed in accordance with the MIC and MBC tests conducted above, but with horizontal and longitudinal two-fold serial dilutions of the tested compounds. […] The fractional inhibitory concentration (FIC) and fractional bactericidal concentration (FBC) were calculated by the equation (MIC or MBC of peptide in combination/MIC or MBC of peptide alone) + (MIC or MBC of antibiotic in combination/MIC or MBC of antibiotic alone). Synergy was defined as FIC/FBC ≤ 0.5, additive when 0.5 < FIC/FBC ≤ 1, indifferent when 1 < FIC/FBC < 2 and antagonistic when FIC/FBC ≥ 2. All experiments were repeated at least three times.

Turning to `CCCCC(=O)N[C@@H](CC(C)C)C(=O)NCC(=O)N[C@H](C(=O)N[C@@H](CCCCN)C(=O)N[C@H](C(=O)N[C@@H](CC(C)C)C(=O)N[C@@H](Cc1c[nH]c2ccccc12)C(=O)N[C@@H](CO)C(=O)N[C@@H](C)C(=O)N[C@@H](Cc1ccc(O)cc1)C(=O)N[C@@H](CCCCN)C(=O)N[C@@H](Cc1c[nH]cn1)C(=O)N[C@@H](CCCNC(=N)N)C(=O)N[C@@H](CCCCN)C(=O)N[C@H](C(=O)N[C@H](C(N)=O)[C@@H](C)CC)[C@@H](C)O)[C@@H](C)CC)[C@@H](C)CC` [L-6-C5] (Pentanoyl-LGIKILWSAYKHRKTI-NH2), the “HC, hemolytic concentration at 5% hemolytic activity” value in the data set on human erythrocytes is recorded as above 100 µM. Moreover, the EC50 in data set [1] amounted to 110 nM. In addition, the “critical aggregation concentration (CAC)” value in data set [2] is 5.6 µM. For the same compound, in the data set with E. coli (K-12 MG1655), the “E. coli MBC, lipopeptide alone” value is on record as 6.25 µM. The “E. coli MIC, lipopeptide alone” value in the data set with E. coli (K-12 MG1655) is on record as 6.25 µM. Moreover, the MBC against E. coli (setting [3]), against E. coli (setting [4]), against E. coli (setting [5]), in the data set on E. coli (setting [6]), in the data set on S. aureus (setting [7]) and in the data set on S. aureus (setting [8]) was 6.3 µM (≈ 12.7 µg/mL) in each case. In addition, the MBC in the data set on S. aureus (setting [9]) and against S. aureus (setting [10]) was 6.3 µM (≈ 12.7 µg/mL) throughout. Further, the MIC in the data set on E. coli (setting [3]), against E. coli (setting [4]), with E. coli (setting [5]), against E. coli (setting [6]), against S. aureus (setting [7]) and with S. aureus (setting [8]) was 6.3 µM (≈ 12.7 µg/mL) throughout. Moreover, the MIC against S. aureus (setting [9]) and in the data set with S. aureus (setting [10]) was 6.3 µM (≈ 12.7 µg/mL) in each case.

The record behind these values is publication PMC10011573, “Development of novel broad-spectrum antimicrobial lipopeptides derived from plantaricin NC8 β” (Scientific Reports, 2023).
